# Measured values: ChEMBL document CHEMBL5370630, “Design, Synthesis, and Biological Evaluation of SSE1806, a Microtubule Destabilizer That Overcomes Multidrug Resistance” (2023)
# Activity calls are given as the source filed them. The rule behind the calls is not given here.
# What was measured:
# CAL-51 [1] = test: Antiproliferative activity against human CAL-51 cells incubated for 72 hrs by SRB proliferation assay; assay type: functional
# HCT-116 [2] = test: Antiproliferative activity against human HCT-116 cells incubated for 72 hrs by SRB proliferation assay; assay type: functional
# CAL-51 [3] = test: Induction of mitotic arrest in human CAL-51 cells assessed as upregulation of histone H3 phosphorylation at S10 residue at 25 uM incubated for 8 hrs by dot blot assay; assay type: functional, cell-based
# Tubulin (Homo sapiens) [4] = biological target: T1, Tubulin (Homo sapiens) (UniProt P68371+Q9H4B7+P0DPH7+P68366+Q13509+Q71U36+P04350+Q3ZCM7+P07437+P68363+Q9BQE3+Q6PEY2+Q13885+Q9BVA1+Q9BUF5); test: Inhibition of microtubule polymerization (unknown origin) at 10 uM incubated for 1 hr by turbidimetric assay relative to control; assay type: protein-complex assay
# MOLM-13 = test: Antitumor activity against human MOLM-13 cells by MTS assay; assay type: functional
# A549 [5] = test: Induction of mitotic arrest in human A549 cells assessed as increase in mitotic index by measuring histone H3 phosphorylation at S10 residue at 5 times GI50 incubated for 24 hrs by immunofluorescence analysis; assay type: functional, cell-based
# KB 3-1 [6] = test: Antitumor activity against human KB-3-1 cells by MTS assay; assay type: functional
# [7] = Anticancer activity against mouse colon cancer organoids expressing Apc fl/fl-Kras G12D-Tp53 KO-Smad4 KO assessed as inhibition of cell viability measured after 4 days by Cell Titer Glo assay; assay type: functional; conditions: Colon cancer organoid, 96 h, time 4 day
# Tubulin (Homo sapiens) [8] = biological target: T1, Tubulin (Homo sapiens); test: Inhibition of microtubule polymerization in human HCT-116 cells assessed as decrease in polymeric tubulin level at 1.25 to 5 times GI50 incubated for 5 mins by immunoblot analysis; assay type: cell-based
# HCT-116 [9] = test: Induction of apoptosis in human HCT-116 cells assessed as increase in PARP cleavage at 1.25 to 5 times GI50 incubated for 24 to 36 hrs by Western blot analysis; assay type: functional, cell-based; conditions: time 24-36 hrs
# HCT-116 [10] = test: Induction of apoptosis in human HCT-116 cells assessed as increase in apoptotic cell death at 2.5 to 5 times GI50 incubated for 24 hrs by Annexin V/PI staining based flow cytometric analysis; assay type: functional
# Tubulin (Homo sapiens) [11] = biological target: T1, Tubulin (Homo sapiens); test: Inhibition of microtubule polymerization in human HCT-116 cells assessed as increase in soluble tubulin level at 1.25 to 5 times GI50 incubated for 5 mins by immunoblot analysis; assay type: cell-based
# BT-549 = test: Antitumor activity against human BT-549 cells by MTS assay; assay type: functional
# KB 3-1 [12] = test: Induction of apoptosis in human KB-3-1 cells assessed as increase in PARP cleavage at 1.25 to 5 uM incubated for 24 hrs by Western blot analysis; assay type: functional, cell-based; conditions: dose 1.25-5 µM
# HCT-116 [13] = test: Induction of mitotic arrest in human HCT-116 cells assessed as upregulation of histone H3 phosphorylation at S10 residue at 1.25 to 5 times GI50 measured for 8 to 16 hrs by Western blot analysis; assay type: functional, cell-based; conditions: time 8-16 hrs
# KB-V1 [14] = test: Inhibition of P-gp in human KB-V1 cells at 5 uM by calcein AM efflux assay; assay type: functional, cell-based
# A549 [15] = test: Induction of mitotic cell arrest in human A549 cells assessed as defective spindles at 5 times GI50 incubated for 24 hrs by immunofluorescence based confocal microscopic analysis; assay type: functional
# HCC1954 = test: Antitumor activity against human HCC1954 cells by MTS assay; assay type: functional
# HCT-116 [16] = test: Induction of cell cycle arrest in human HCT-116 cells accumulation of cells at G2/M phase incubated for 12 hrs by PI staining based flow cytometry analysis; assay type: functional
# MCF7 = test: Antitumor activity against human MCF7 cells by MTS assay; assay type: functional
# KB 3-1 [17] = test: Cytotoxicity against human KB-3-1 cells assessed as inhibition of cell proliferation; assay type: functional
# [18] = Anticancer activity against human colon cancer organoids assessed as inhibition of cell viability measured after 4 days by Cell Titer Glo assay; assay type: functional; conditions: Colon cancer organoid, 96 h, time 4 day
# KB-V1 [19] = test: Induction of apoptosis in multidrug resistant human KB-V1 cells assessed as increase in PARP cleavage at 1.25 to 5 uM incubated for 24 hrs by Western blot analysis; assay type: functional, cell-based; conditions: dose 1.25-5 µM
# Tubulin (Homo sapiens) [20] = biological target: T1, Tubulin (Homo sapiens); test: Inhibition of microtubule re-polymerization in human A549 cells at 5 times GI50 preincubated for 30 min on ice followed by incubation at 37 degreeC for 10 mins by immunofluorescence analysis; assay type: cell-based; conditions: time 40.0 min
# [21] = Resistance index, ratio of GI50 for multidrug resistant human KB-V1 cells to GI50 for human KB-3-1 cells; assay type: functional
# KB-V1 [22] = test: Cytotoxicity against multidrug resistant human KB-V1 cells assessed as inhibition of cell proliferation; assay type: functional
# A549 [23] = test: Induction of mitotic cell arrest in human A549 cells assessed as chromosome misalignment at 5 times GI50 incubated for 24 hrs by immunofluorescence based confocal microscopic analysis; assay type: functional
# MV4-11 = test: Antitumor activity against human MV4-11 cells by MTS assay; assay type: functional
# K562 = test: Antitumor activity against human K562 cells by MTS assay; assay type: functional
# HCT-116 [24] = test: Induction of apoptosis in human HCT-116 cells assessed as increase in p53 expression at 1.25 to 5 times GI50 incubated for 24 to 36 hrs by Western blot analysis; assay type: functional, cell-based; conditions: time 24-36 hrs
# KB 3-1 [25] = test: Induction of apoptosis in human KB-3-1 cells assessed as increase in PARP cleavage at 100 uM incubated for 24 hrs by Western blot analysis; assay type: functional, cell-based
structure (smiles),measurement,setting,value
O=C1CCCC2=C1C(c1ccccc1)c1cc3c(cc1N2)OCCO3 (stereo unspecified),GI50,CAL-51 [1],9.53 µM
same,GI50,HCT-116 [2],> 100 µM
same,Activity,CAL-51 [3],Active
O=C1CCCC2=C1C(c1cccc([N+](=O)[O-])c1)c1cc3c(cc1N2)OCCO3 (stereo unspecified),inhibition,Tubulin (Homo sapiens) [4],Active
same,GI50,MOLM-13,4.23 µM
same,Activity,A549 [5],Active
same,GI50,KB 3-1 [6],1.29 µM
same,GI50,[7],7.16 µM
same,inhibition,Tubulin (Homo sapiens) [8],Active
same,Activity,HCT-116 [9],Active
same,Activity,HCT-116 [10],Active
same,inhibition,Tubulin (Homo sapiens) [11],Active
same,GI50,BT-549,7.05 µM
same,Activity,KB 3-1 [12],Active
same,Activity,HCT-116 [13],Active
same,inhibition,KB-V1 [14],inactive
same,Activity,A549 [15],Active
same,GI50,CAL-51 [1],3.3 µM
same,GI50,HCC1954,21.2 µM
same,Activity,HCT-116 [16],Dose-Dependent Effect
same,GI50,MCF7,5.02 µM
same,GI50,KB 3-1 [17],1.29 µM
same,GI50,[18],11.6 µM
same,Activity,KB-V1 [19],Active
same,GI50,HCT-116 [2],2.01 µM
same,inhibition,Tubulin (Homo sapiens) [20],Active
same,RatioGI50,[21],1.35
same,GI50,KB-V1 [22],1.74 µM
same,Activity,A549 [23],Active
same,Activity,CAL-51 [3],Active
same,GI50,MV4-11,9.45 µM
same,GI50,K562,17.7 µM
same,Activity,HCT-116 [24],Active
COc1ccc(OC)c(C2C3=C(CCCC3=O)Nc3cc4c(cc32)OCCO4)c1 (stereo unspecified),GI50,CAL-51 [1],20.9 µM
same,GI50,HCT-116 [2],12.2 µM
COC(=O)Nc1nc2cc(C(=O)c3cccs3)ccc2[nH]1 [NOCODAZOLE],inhibition,Tubulin (Homo sapiens) [8],Active
same,inhibition,Tubulin (Homo sapiens) [11],Active
same,GI50,CAL-51 [1],0.209 µM
same,GI50,HCT-116 [2],0.24 µM
same,inhibition,Tubulin (Homo sapiens) [20],Active
COc1cc(C2C3=C(CCCC3=O)Nc3cc4c(cc32)OCCO4)cc(OC)c1OC (stereo unspecified),GI50,CAL-51 [1],4.15 µM
same,GI50,HCT-116 [2],3.33 µM
same,Activity,CAL-51 [3],Active
COc1cccc(C2C3=C(CCCC3=O)Nc3cc4c(cc32)OCCO4)c1 (stereo unspecified),GI50,CAL-51 [1],12.7 µM
same,GI50,HCT-116 [2],11.9 µM
same,Activity,CAL-51 [3],Active
O=C1CCCC2=C1C(c1cccc(Cl)c1)c1cc3c(cc1N2)OCCO3 (stereo unspecified),GI50,CAL-51 [1],12.6 µM
same,GI50,HCT-116 [2],18.4 µM
same,Activity,CAL-51 [3],Active
CC(=O)O[C@H]1C(=O)[C@@]2(C)[C@H]([C@H](OC(=O)c3ccccc3)[C@]3(O)C[C@H](OC(=O)[C@H](O)[C@@H](NC(=O)c4ccccc4)c4ccccc4)C(C)=C1C3(C)C)[C@]1(OC(C)=O)CO[C@@H]1C[C@@H]2O [PACLITAXEL],GI50,KB 3-1 [17],0.00223 µM
same,Activity,KB 3-1 [25],Active
same,RatioGI50,[21],193.51
same,GI50,KB-V1 [22],0.432 µM
O=C1CCCC2=C1C(c1ccco1)c1cc3c(cc1N2)OCCO3 (stereo unspecified),GI50,CAL-51 [1],11.8 µM
same,GI50,HCT-116 [2],9.85 µM
same,Activity,CAL-51 [3],Active
CC[C@]1(O)C[C@H]2CN(CCc3c([nH]c4ccccc34)[C@@](C(=O)OC)(c3cc4c(cc3OC)N(C=O)[C@H]3[C@@](O)(C(=O)OC)[C@H](OC(C)=O)[C@]5(CC)C=CCN6CC[C@]43[C@@H]65)C2)C1 [VINCRISTINE],GI50,CAL-51 [1],0.089 µM
same,GI50,HCT-116 [2],0.006 µM
CN1C2=C(C(=O)CCC2)C(c2ccc(Br)cc2)c2cc3c(cc21)OCCO3 (stereo unspecified),GI50,CAL-51 [1],23.7 µM
same,GI50,HCT-116 [2],17.3 µM
O=C1CCCC2=C1C(c1ccc(F)c(F)c1)c1cc3c(cc1N2)OCCO3 (stereo unspecified),GI50,CAL-51 [1],7.94 µM
same,GI50,HCT-116 [2],5.44 µM
COc1cc([C@@H]2c3cc4c(cc3[C@H](O)[C@H]3COC(=O)[C@H]23)OCO4)cc(OC)c1OC [PODOFILOX],GI50,CAL-51 [1],0.013 µM
same,GI50,HCT-116 [2],0.013 µM
O=C1CCCC2=C1C(c1cccc(F)c1F)c1cc3c(cc1N2)OCCO3 (stereo unspecified),GI50,CAL-51 [1],4.63 µM
same,GI50,HCT-116 [2],4.64 µM
